Assay results taken from patent publication US20230016424A1, “HYBRID AMIDE DERIVATIVES OF AMPHOTERICIN B” (The Board of Trustees of the University of Illinois, priority 2019, published 2023).
Converted amounts (≈) assume the structure as drawn. “And” between values parts separate entries of the source, which are not always exact repeats. Equal values may be shown once.

Tests used:
[1] = tested on: C. albicans SN250, C. albicans, C. krusei, C. glabrata, C. tropicalis, A. fumigatus 91, 1163, 1100; test: Average MIC over the tested strains; type: cell-based; design: Avg. MIC of AmB amide: unit not given here; conditions: for MIC: average over the 8 listed strains; for Avg. MIC of AmB amide: value of the corresponding C16 amide of AmB
A. fumigatus = test: MIC against moulds; type: cell-based; conditions: 5 isolates
A. terreus = test: MIC against moulds; type: cell-based; conditions: 6 isolates
A. thermomutatus = test: MIC against moulds; type: cell-based; conditions: for MIC A. thermomutatus: 6 isolates
A. tubingensis = test: MIC against moulds; type: cell-based; conditions: 6 isolates
Fusarium solani = test: MIC against moulds; type: cell-based; conditions: 6 isolates
[2] = tested on: P. variotii MYA-3630 (QC); test: MIC against moulds; type: cell-based; conditions: 5 isolates
Cunninghamella sp. = test: MIC against moulds; type: cell-based; conditions: 6 isolates
Licht. Corymbifera = test: MIC against moulds; type: cell-based; conditions: 6 isolates
Licht. Ramosa = test: MIC against moulds; type: cell-based; conditions: 6 isolates
Claophialophora bantiana = test: MIC against moulds; type: cell-based; conditions: 6 isolates
Candida auris = test: MIC against yeasts; type: cell-based; conditions: 10 isolates
Rhodotorula sp. = test: MIC against yeasts; type: cell-based; conditions: 6 isolates
Scedosporium aurantiacum = test: MIC against rare moulds resistant to AmB; type: cell-based; conditions: 4 isolates
Scedosporium boydii = test: MIC against rare moulds resistant to AmB; type: cell-based; conditions: 6 isolates
Plasma Stability = type: in vitro ADME; conditions: for half-life at 1 µM: pH 7.4
Outline: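 Compound incubated in plasma at 37 °C, sampled in triplicate at 0, 10, 30, 60 and 120 min. Samples quenched with acetonitrile containing internal standards, centrifuged, and supernatant analysed by LC-MS/MS.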

[3] = Liver microsome stability, summary for all species; type: in vitro ADME; conditions: Mouse, rat, dog, monkey, human: All species
Method: Working Compound solution: 10 uM in 50 mM potassium phosphate buffer with 9% MeOH and 1% DMSO
Microsome solution: working concentration 0.625 mg/ml
Stopping solution: Cold ACN with 200 ng/ml Tolbutamide and 200 ng/ml Labetalol (4° C.)
Procedure: In the well plates (T5, T10, T20, T30, T60, NCF60 (no cofactor 60)) 10 uL of the compound/control working solution was added (except T0 and matric blank) followed by microsome solution (80 uL) and the mixture was incubated at 37 C for about 10 mins. A solution of potassium phosphate (10 ul of 50 mM) was added to NCF60 well, incubated at 37 C and time counting started. After prewarming 10 ul of NADPH regenerating solution was added to each plate to start the reaction. At different time point 300 uL/well of stopping solution to terminate the reaction. The sampling plates were shaken for 10 mins and the centrifuged for 20 mins at 4000 rpm. The supernatant was half diluted with ultra pure water and the analyzed using LCMS.

CYP1A2 = biological target: T1, CYP1A2 (Homo sapiens, UniProt P05177); test: CYP Inhibition; type: in vitro ADME; conditions: human liver microsome; for P450 1A2 % Inhibition: 10 um
T1 construct: from tissue; host or cells: human liver microsomes
T1 sequence (P05177 1-516): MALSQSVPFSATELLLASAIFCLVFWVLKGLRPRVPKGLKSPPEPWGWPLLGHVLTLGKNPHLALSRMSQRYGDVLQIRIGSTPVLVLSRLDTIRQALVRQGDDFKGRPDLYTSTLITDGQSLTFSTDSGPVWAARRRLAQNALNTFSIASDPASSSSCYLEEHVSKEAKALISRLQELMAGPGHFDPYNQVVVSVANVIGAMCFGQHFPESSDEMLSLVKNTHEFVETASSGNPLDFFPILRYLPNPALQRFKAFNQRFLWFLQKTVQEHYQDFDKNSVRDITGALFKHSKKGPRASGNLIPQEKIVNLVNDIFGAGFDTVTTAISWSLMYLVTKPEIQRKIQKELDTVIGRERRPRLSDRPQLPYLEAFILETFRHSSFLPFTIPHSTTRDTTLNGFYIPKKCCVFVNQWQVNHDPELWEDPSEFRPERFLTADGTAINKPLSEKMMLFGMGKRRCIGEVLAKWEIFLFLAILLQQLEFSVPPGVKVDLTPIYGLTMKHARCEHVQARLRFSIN
Method: The working solutions of the test compounds and the standard inhibitors were prepared in DMSO (100× final concentration). 20 ul of substrate solution (5 in 1 cocktail) was added to the wells followed by 2 ul test compound solution was added. 158 ul of human liver microsome (HLM) was added to all the wells of the incubated plate and warmed to 37° C. for 10 mins. 20 ul of NADPH cofactor solution was then added to all the wells of incubated plate and incubated at 37° C. for 10 mins. At the time point the reaction was quenched by adding 400 uL of cold stop solution. The samples were centrifuged at 4000 rpm for 20 mins to precipitate protein. 100 ul supernatant was diluted with 100 ul of ultra pure water and analyzed using LCMS.

CYP2C19 = biological target: T2, CYP2C19 (Homo sapiens, UniProt P33261); test: CYP Inhibition; type: in vitro ADME; conditions: human liver microsome; for P450 2C19 % Inhibition: 10 um
T2 construct: 158 ul of human liver microsome (HLM) was added to all the wells; from tissue; host or cells: human liver microsomes
T2 sequence (P33261 whole entry): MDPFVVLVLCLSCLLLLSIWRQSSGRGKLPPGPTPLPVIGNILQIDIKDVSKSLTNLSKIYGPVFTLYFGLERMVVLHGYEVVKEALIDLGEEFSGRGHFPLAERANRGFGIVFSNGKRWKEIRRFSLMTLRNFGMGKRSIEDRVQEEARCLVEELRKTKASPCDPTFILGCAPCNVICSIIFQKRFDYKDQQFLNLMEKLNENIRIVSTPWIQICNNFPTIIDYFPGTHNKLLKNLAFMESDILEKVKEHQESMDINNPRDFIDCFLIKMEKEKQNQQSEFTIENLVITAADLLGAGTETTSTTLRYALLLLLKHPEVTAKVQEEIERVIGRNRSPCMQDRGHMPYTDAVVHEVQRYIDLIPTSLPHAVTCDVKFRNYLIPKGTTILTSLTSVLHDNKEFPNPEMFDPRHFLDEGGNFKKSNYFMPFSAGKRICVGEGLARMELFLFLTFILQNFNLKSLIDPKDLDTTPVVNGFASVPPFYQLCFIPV

yeast (5 strains) = test: MICavg yeast (5 strains); type: cell-based; design: unit not given beside the values
moulds (3 strains) = test: MICavg moulds (3 strains); type: cell-based; design: unit not given beside the values
Solubility in D5W = conditions: for Solubility in D5W: 5% dextrose in water, room temperature; for Fold of Increase w.r.t. AmB (solubility): D5W
[4] = Table 12, C16 amides of C2'epiAmB
[5] = Table 13, C16 amides of C2’epiAmB

Row | SMILES | MIC [1] | MIC (Licht. Ramosa) [µM] | MIC (Claophialophora bantiana) [µM] | % Remaining at 120 min (Plasma Stability; Human Plasma) [%] | Half Life (Plasma Stability; Human Plasma) | MICavg yeast (5 strains) (yeast (5 strains)) | MICavg moulds (3 strains) (moulds (3 strains)) | Average MIC [1, 4] [µM] | Average MIC [1, 5] [µM] | Avg. MIC of AmB amide ([1]; not of the C2’epi compound) | MIC (A. fumigatus) [µM] | MIC (A. terreus) [µM] | MIC A. thermomutatus (A. thermomutatus) [µM] | MIC (A. tubingensis) [µM] | MIC (Fusarium solani) [µM] | MIC [2] [µM] | MIC (Cunninghamella sp.) [µM] | MIC (Licht. Corymbifera) [µM] | MIC (Candida auris) [µM] | MIC (Rhodotorula sp.) [µM] | also measured
1 | C[C@@H]1[C@H](O)[C@@H](C)/C=C/C=C/C=C/C=C/C=C/C=C/C=C/[C@H](OC2O[C@H](C)[C@@H](O)[C@H](N)[C@@H]2O)C[C@@H]2O[C@](O)(C[C@@H](O)C[C@@H](O)[C@H](O)CC[C@@H](O)C[C@@H](O)CC(=O)O[C@H]1C)C[C@H](O)[C@H]2C(=O)O (some centres unmarked) [AmB, Amphotericin B] | 0.642 µM and 0.44 µM | 0.15 (≈ 0.139 µg/mL) | 0.375 (≈ 0.347 µg/mL) | 97.7 | >289; >289 min | 0.23 | 0.92 |  |  |  |  |  |  |  |  |  |  |  |  |  | MIC (A. fumigatus; Aspergillus fumigatus): 0.71 µM (≈ 0.656 µg/mL); MIC (A. terreus; Aspergillus terreus): 3 µM (≈ 2.77 µg/mL); MIC (A. thermomutatus; Aspergillus thermomutatus, read-out: MIC A. thermomutatus): 0.6 µM (≈ 0.554 µg/mL); MIC (A. tubingensis; Aspergillus tubingensis): 0.125 µM (≈ 0.116 µg/mL); MIC (Fusarium solani; Fusarium solani): 1.33 µM (≈ 1.23 µg/mL); MIC ([2]; Paecilomyces variotii): 1 µM (≈ 0.924 µg/mL); MIC (Cunninghamella sp.; Cunninghamella): 2 µM (≈ 1.85 µg/mL); MIC (Licht. Corymbifera; Lichtheimia corymbifera): 0.23 µM (≈ 0.213 µg/mL); MIC (Candida auris; Candidozyma auris): 1.2 µM (≈ 1.11 µg/mL); MIC (Rhodotorula sp.; Rhodotorula): 1 µM (≈ 0.924 µg/mL); MIC (Scedosporium aurantiacum; Scedosporium aurantiacum): > 16 µM; MIC (Scedosporium boydii; Scedosporium boydii): > 16 µM; % Remaining at 120 min (Plasma Stability; Rat Plasma): 88.3%; half-life at 1 µM (Plasma Stability; Human Plasma): > 4.82 h; half-life at 1 µM (Plasma Stability; Mouse Plasma): > 4.82 h; half-life at 1 µM (Plasma Stability; Rat Plasma): > 4.82 h; half-life at 1 µM ([3]; liver microsomes, read-out: Liver microsome T1/2): > 2.42 h; inhibition at 10 min, 10 µM (CYP1A2; human liver microsomes, probe 5 in 1 substrate cocktail, read-out: P450 1A2 % Inhibition): 23.1%; inhibition at 10 min, 10 µM (CYP2C19; human liver microsomes, probe 5 in 1 substrate cocktail (substrates not named), read-out: P450 2C19 % Inhibition): 7.3%; solubility (Solubility in D5W; 5% dextrose in water (D5W), saline or isotonic, thermodynamic from solid): 23 µM (≈ 21.3 µg/mL)
2 | CC1C=CC=CC=CC=CC=CC=CC=CC(OC2OC(C)C(O)C(N)C2O)CC2OC(O)(CC(O)CC(O)C(O)CCC(O)CC(O)CC(=O)OC(C)C(C)C1O)CC(O)C2C(=O)NCCO (centres unmarked) [Compound BA] | 0.727 µM | 1.1 (≈ 1.06 µg/mL) | 2 (≈ 1.93 µg/mL) | 118 | >289 min and >289; >289 min | 0.59 | 1.3 | 1.031 | 1030 | 0.18 | 2 (≈ 1.93 µg/mL) | 3.33 (≈ 3.22 µg/mL) | 1.6 (≈ 1.55 µg/mL) | 0.92 (≈ 0.89 µg/mL) | 8.67 (≈ 8.39 µg/mL) | 2.7 (≈ 2.61 µg/mL) | 7.3 (≈ 7.06 µg/mL) | 1 (≈ 0.967 µg/mL) | 2.8 (≈ 2.71 µg/mL) | 3.3 (≈ 3.19 µg/mL) | Average MIC for AmB analogue ([1]; value of the corresponding AmB analogue, not of the C2’epi compound): 0.328 μM; MIC (Scedosporium aurantiacum): >16 µM; MIC (Scedosporium boydii): >16 µM; % Remaining at 120 min (Plasma Stability; Mouse Plasma): 100%; Half Life (Plasma Stability; Mouse Plasma): >289 min and >289; >289 min; Liver microsome T1/2 [3]: >2.42 h; P450 1A2 % Inhibition (CYP1A2): 0.0%; P450 2C19 % Inhibition (CYP2C19): 26.0%; Solubility in D5W (Solubility in D5W): >2600 µM; Fold of Increase w.r.t. AmB (solubility) (Solubility in D5W): >113
3 | CC1C=CC=CC=CC=CC=CC=CC=CC(OC2OC(C)C(O)C(N)C2O)CC2OC(O)(CC(O)CC(O)C(O)CCC(O)CC(O)CC(=O)OC(C)C(C)C1O)CC(O)C2C(=O)NCCF (centres unmarked) [Compound BM] |  | 1 (≈ 0.969 µg/mL) | 1 (≈ 0.969 µg/mL) |  | >289; >289 min | 0.58 | 1.7 | 0.844 | 840 | 0.39 | 1.83 (≈ 1.77 µg/mL) | 1.08 (≈ 1.05 µg/mL) | 1.7 (≈ 1.65 µg/mL) | 0.92 (≈ 0.892 µg/mL) | 8.8 (≈ 8.53 µg/mL) | 2.67 (≈ 2.59 µg/mL) | 6 (≈ 5.81 µg/mL) | 1 (≈ 0.969 µg/mL) | 2.4 (≈ 2.33 µg/mL) | 3.3 (≈ 3.2 µg/mL) | MIC (Scedosporium aurantiacum): >16 µM; MIC (Scedosporium boydii): >16 µM; Half Life (Plasma Stability; Mouse Plasma): >289; >289 min; Liver microsome T1/2 [3]: >2.42 h; P450 1A2 % Inhibition (CYP1A2): 7.8%; P450 2C19 % Inhibition (CYP2C19): 19.7%; Solubility in D5W (Solubility in D5W): 150 µM (≈ 145 µg/mL); Fold of Increase w.r.t. AmB (solubility) (Solubility in D5W): 6.5
